According to ChEMBL document CHEMBL4257443, “The discovery of a potent Nav1.3 inhibitor with good oral pharmacokinetics” (Medchemcomm, 2017):
≈ marks a conversion by molar mass, not a printed value. Values belong to the compound of their own block, whether it stands above or below them.

Experiments:
[1] = target: T1, Sodium channel protein type 3 subunit alpha (Homo sapiens, UniProt Q9NY46); assay: Inhibition of human NaV1.3 expressed in HEK cells by electrophysiological method; type: cell-based
[2] = target: Sodium channel protein type 9 subunit alpha (Homo sapiens, UniProt Q15858); assay: Inhibition of human NaV1.7
[3] = Clearance in rat; type: ADME, organism-based; settings: in vivo
CYP3A4 = CYP3A4 (Homo sapiens, UniProt P08684); assay: Inhibition of CYP3A4 (unknown origin) at 3 uM by high throughput assay relative to control; type: ADME
[4] = Dissociation constant, pKa of compound; type: physicochemical
[5] = target: Sodium channel protein type 5 subunit alpha (Homo sapiens, UniProt Q14524); assay: Inhibition of human NaV1.5
[6] = Oral bioavailability in rat; type: ADME, organism-based; settings: in vivo
[7] = Volume of distribution in rat; type: ADME, organism-based; settings: in vivo
[8] = Clearance in human liver microsomes; type: ADME, microsome; settings: read-out: CLH
MDR1 = assay: Efflux ratio of permeability across basolateral to apical over apical to basolateral side in RRCK cells expressing MDR1; type: ADME, cell-based, Canis lupus familiaris, MDCKII-LE; settings: dog, MDCK-MDR1
[9] = target: Sodium channel protein type 8 subunit alpha (Homo sapiens, UniProt Q9UQD0); assay: Inhibition of human NaV1.6
[10] = target: Sodium channel protein type 10 subunit alpha (Homo sapiens, UniProt Q9Y5Y9); assay: Inhibition of human NaV1.8
[11] = target: Sodium channel protein type 2 subunit alpha (Homo sapiens, UniProt Q99250); assay: Inhibition of human NaV1.2
[12] = target: Voltage-gated inwardly rectifying potassium channel KCNH2 (Homo sapiens, UniProt Q12809); assay: Inhibition of human ERG
[13] = target: Sodium channel protein type 1 subunit alpha (Homo sapiens, UniProt P35498); assay: Inhibition of human NaV1.1
[14] = Lipophilicity, log D of the compound; type: physicochemical; settings: octanol/water
[15] = Aqueous solubility of compound; type: physicochemical; settings: buffer
CYP2C9 = CYP2C9 (Homo sapiens, UniProt P11712); assay: Inhibition of CYP2C9 (unknown origin) at 3 uM by high throughput assay relative to control; type: ADME
[16] = target: Sodium channel protein type 4 subunit alpha (Homo sapiens, UniProt P35499); assay: Inhibition of human NaV1.4
[17] = target: Sodium channel protein type 3 subunit alpha (Rattus norvegicus, UniProt P08104); assay: Inhibition of rat NaV1.3 by electrophysiological method
[18] = target: Sodium channel protein type 9 subunit alpha (Rattus norvegicus, UniProt O08562); assay: Inhibition of rat NaV1.7
[19] = target: T1, Sodium channel protein type 3 subunit alpha; assay: Inhibition of NaV1.3 (unknown origin) expressed in HEK293 cells by CC2-DMPE/DiSBAC2(3) dye-based FRET assay; type: cell-based

T1 sequence (Q9NY46 whole entry): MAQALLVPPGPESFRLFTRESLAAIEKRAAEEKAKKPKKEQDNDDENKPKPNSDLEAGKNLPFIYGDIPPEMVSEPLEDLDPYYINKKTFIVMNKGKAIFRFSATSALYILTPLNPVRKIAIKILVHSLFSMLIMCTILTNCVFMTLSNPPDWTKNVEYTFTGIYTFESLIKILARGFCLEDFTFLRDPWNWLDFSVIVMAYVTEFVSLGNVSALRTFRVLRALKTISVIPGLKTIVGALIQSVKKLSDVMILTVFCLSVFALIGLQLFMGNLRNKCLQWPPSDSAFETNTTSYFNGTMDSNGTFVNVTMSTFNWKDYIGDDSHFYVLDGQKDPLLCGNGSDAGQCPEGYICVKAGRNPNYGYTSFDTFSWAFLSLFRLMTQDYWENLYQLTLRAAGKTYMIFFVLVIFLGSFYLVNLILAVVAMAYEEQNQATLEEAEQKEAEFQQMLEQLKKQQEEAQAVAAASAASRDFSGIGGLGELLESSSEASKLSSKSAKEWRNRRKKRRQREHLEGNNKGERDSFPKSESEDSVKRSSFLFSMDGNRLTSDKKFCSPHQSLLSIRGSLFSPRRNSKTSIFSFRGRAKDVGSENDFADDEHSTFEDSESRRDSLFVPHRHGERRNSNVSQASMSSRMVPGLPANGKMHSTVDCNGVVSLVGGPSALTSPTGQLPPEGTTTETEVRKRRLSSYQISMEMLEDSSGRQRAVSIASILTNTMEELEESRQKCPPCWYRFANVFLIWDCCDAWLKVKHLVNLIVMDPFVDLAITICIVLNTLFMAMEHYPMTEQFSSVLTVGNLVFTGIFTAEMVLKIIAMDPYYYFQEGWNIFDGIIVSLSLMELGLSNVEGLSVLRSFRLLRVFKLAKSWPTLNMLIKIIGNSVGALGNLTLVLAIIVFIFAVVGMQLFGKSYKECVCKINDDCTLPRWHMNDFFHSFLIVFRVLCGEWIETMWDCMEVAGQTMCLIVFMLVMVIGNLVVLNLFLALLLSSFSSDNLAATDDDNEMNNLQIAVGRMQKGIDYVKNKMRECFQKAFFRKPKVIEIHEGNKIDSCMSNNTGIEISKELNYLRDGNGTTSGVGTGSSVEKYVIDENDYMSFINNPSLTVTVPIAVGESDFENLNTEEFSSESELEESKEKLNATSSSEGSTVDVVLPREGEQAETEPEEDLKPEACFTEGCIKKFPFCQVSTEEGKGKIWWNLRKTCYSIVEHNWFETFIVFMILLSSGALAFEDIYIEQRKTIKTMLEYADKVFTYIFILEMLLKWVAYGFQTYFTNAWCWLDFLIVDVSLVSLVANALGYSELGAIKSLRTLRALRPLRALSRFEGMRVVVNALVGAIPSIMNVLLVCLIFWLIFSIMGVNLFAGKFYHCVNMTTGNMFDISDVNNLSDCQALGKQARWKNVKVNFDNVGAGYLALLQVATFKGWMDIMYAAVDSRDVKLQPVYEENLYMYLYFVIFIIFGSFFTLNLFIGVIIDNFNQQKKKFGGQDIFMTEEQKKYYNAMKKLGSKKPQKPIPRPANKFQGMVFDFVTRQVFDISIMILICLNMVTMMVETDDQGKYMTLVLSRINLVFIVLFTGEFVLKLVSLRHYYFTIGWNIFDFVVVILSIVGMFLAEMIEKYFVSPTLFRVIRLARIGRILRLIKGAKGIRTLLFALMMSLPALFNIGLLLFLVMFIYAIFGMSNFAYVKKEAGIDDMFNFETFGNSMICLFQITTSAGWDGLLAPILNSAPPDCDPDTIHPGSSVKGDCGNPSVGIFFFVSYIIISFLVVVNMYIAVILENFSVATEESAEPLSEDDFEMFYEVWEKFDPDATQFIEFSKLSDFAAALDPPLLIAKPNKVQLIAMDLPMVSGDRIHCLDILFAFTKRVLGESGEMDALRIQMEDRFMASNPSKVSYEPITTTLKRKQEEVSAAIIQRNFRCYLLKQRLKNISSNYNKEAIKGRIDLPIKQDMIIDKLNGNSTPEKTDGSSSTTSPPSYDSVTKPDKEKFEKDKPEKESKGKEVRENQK
Sodium channel protein type 2 subunit alpha, sequence (Q99250 whole entry): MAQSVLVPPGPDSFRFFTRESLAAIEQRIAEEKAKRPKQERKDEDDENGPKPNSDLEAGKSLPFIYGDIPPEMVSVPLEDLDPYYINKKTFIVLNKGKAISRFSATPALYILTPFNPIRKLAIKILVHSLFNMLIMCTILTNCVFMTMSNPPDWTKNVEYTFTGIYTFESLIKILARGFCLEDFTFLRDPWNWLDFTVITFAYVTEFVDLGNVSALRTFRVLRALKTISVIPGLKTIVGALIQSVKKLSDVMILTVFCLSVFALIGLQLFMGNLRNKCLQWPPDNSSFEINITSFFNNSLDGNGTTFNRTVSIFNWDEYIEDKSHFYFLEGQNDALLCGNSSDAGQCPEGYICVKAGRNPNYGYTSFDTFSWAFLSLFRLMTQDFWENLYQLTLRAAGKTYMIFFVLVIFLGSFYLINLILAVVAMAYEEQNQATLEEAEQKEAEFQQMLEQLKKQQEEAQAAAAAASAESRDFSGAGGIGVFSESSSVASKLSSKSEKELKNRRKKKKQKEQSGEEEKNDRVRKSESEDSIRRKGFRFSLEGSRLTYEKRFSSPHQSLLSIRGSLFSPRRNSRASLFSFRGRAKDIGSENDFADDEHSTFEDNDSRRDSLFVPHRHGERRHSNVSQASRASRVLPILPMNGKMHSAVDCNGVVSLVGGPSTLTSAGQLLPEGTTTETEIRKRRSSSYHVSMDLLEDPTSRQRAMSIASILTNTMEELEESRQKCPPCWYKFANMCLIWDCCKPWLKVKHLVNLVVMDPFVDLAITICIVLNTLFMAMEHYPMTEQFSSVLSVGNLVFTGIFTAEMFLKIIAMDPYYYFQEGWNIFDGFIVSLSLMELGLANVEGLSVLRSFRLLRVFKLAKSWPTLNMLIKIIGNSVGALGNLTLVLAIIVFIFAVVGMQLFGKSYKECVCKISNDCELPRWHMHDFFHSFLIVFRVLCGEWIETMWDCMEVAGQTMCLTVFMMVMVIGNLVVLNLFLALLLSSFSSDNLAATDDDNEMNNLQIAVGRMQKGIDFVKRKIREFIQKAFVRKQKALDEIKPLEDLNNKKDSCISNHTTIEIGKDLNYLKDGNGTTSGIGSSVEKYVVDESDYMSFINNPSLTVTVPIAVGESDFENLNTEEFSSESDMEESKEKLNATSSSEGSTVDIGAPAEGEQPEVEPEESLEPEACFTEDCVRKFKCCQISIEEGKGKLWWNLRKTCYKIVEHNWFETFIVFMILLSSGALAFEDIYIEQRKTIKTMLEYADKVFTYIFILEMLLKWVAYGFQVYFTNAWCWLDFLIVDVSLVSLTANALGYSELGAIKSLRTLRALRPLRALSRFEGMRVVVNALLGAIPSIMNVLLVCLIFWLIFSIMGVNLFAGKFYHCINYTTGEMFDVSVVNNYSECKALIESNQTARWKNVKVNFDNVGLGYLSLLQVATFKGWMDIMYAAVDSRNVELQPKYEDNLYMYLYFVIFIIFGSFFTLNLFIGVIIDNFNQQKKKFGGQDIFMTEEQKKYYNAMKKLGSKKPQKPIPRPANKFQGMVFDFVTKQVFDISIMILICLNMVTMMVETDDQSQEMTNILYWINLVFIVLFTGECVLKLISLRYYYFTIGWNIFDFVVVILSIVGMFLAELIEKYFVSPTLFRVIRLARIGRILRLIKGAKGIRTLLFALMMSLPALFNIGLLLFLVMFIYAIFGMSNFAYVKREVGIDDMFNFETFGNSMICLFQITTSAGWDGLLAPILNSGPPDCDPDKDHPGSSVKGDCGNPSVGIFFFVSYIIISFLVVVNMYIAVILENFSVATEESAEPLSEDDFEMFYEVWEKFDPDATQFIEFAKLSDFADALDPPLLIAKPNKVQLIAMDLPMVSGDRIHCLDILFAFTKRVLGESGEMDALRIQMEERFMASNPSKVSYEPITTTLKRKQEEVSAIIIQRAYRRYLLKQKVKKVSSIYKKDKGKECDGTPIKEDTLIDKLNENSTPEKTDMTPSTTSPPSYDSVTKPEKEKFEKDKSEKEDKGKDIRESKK
CYP2C9, sequence (P11712 whole entry): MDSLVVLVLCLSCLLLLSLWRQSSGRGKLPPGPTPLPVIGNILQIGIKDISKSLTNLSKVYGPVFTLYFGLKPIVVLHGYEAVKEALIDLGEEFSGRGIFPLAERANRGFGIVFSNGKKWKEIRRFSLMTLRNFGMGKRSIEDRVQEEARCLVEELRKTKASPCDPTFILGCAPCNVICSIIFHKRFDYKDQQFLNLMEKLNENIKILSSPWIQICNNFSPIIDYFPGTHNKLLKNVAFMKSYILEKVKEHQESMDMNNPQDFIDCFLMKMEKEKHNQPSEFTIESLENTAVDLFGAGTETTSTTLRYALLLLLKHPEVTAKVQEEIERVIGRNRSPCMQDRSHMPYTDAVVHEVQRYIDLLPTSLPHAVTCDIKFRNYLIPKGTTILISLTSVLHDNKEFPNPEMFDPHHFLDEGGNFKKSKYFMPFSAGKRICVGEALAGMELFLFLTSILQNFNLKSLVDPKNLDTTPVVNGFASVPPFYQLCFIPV
CYP3A4, sequence (P08684 whole entry): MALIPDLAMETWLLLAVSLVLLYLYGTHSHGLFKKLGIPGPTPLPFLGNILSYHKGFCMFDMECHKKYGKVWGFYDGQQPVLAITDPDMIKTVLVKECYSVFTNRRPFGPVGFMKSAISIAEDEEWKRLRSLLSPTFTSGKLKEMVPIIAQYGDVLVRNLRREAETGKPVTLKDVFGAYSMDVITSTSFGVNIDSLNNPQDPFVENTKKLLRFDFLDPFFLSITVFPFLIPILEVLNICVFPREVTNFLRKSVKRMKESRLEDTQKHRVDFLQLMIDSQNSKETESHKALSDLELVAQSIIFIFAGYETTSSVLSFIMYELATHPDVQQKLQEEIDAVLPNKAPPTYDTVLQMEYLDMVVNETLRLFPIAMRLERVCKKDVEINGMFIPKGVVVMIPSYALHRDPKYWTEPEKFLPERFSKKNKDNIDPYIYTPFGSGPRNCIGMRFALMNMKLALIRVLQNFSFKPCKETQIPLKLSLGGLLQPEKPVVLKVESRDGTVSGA

- IC50 [1]: 124 nM
Compound: O=S(=O)(Nc1nccs1)c1ccc(-c2nnc(Cc3ccc(C(F)(F)F)cc3)[nH]2)cc1

- IC50 [2]: 1800 nM
- clearance [3]: 4.4 mL/min/kg
- inhibition at 3 µM (CYP3A4): 88%
- pKa [4]: 3.3
- bioavailability [6]: 4%
- Vd [7]: 0.1 L/kg
- microsomal CLint [8]: < 8 µL/min/mg
- efflux ratio (MDR1): 1
- IC50 [9]: 2100 nM
- IC50 [10]: 11300 nM
- IC50 [11]: 920 nM
- IC50 [13]: 12 nM
- logD [14]: 2.1
- solubility [15]: 369 µg/mL (≈ 722 µM)
- IC50 [1]: 13 nM
- inhibition at 3 µM (CYP2C9): 88%
Compound: O=C(NCc1ccc(OC(F)(F)F)c(Cl)c1)c1ccc(S(=O)(=O)Nc2ncns2)c(F)c1
- IC50 [5]: 4870 nM
- IC50 [12]: > 100000 nM

- logD [14]: 2.5
- IC50 [1]: 147 nM
Compound: O=C(NCc1ccc(C(F)(F)F)cc1)c1ccc(S(=O)(=O)Nc2nccs2)cc1

- logD [14]: 1.8
- IC50 [1]: 374 nM
Compound: O=C(NCc1ccc(OC(F)(F)F)c(Cl)c1)c1ccc(S(=O)(=O)Nc2ncccn2)c(F)c1

- logD [14]: 2.4
- IC50 [1]: 1790 nM
Compound: O=C(NCc1ccc(OC(F)(F)F)c(Cl)c1)c1ccc(S(=O)(=O)Nc2cccnn2)c(F)c1

- IC50 [1]: 160 nM
Compound: O=S(=O)(NCc1ccc(C(F)(F)F)cc1)c1ccc(S(=O)(=O)Nc2nccs2)cc1

- IC50 [2]: 5200 nM
- microsomal CLint [8]: 15 µL/min/mg
- efflux ratio (MDR1): 30
- IC50 [9]: 10300 nM
- IC50 [16]: 10000 nM
- IC50 [10]: 3000 nM
- IC50 [11]: 393 nM
- IC50 [13]: 32 nM
- logD [14]: 3.3
- IC50 [17]: 6 nM
- solubility [15]: 268 µg/mL (≈ 596 µM)
- IC50 [18]: 68 nM
- IC50 [1]: 17 nM
- inhibition at 3 µM (CYP2C9): 79%
Compound: O=C(Nc1ccc(S(=O)(=O)Nc2nccs2)cc1)C(c1ccccc1)c1ccccc1
- IC50 [5]: 9200 nM

- IC50 [1]: 45 nM
Compound: O=S(=O)(Nc1nccs1)c1ccc(-c2nnc(Cc3ccc(Cl)c(Cl)c3)[nH]2)cc1

- IC50 [1]: 4450 nM
Compound: O=C(NCc1ccccc1)c1ccc(S(=O)(=O)Nc2nccs2)cc1

- IC50 [1]: 1640 nM
Compound: O=S(=O)(Nc1nccs1)c1ccc(S(=O)(=O)N2CCC(c3cccc(C(F)(F)F)n3)CC2)cc1F

- logD [14]: 2.1
- IC50 [1]: 993 nM
Compound: O=C(NCc1ccc(OC(F)(F)F)c(Cl)c1)c1ccc(S(=O)(=O)Nc2ncc(F)cn2)c(F)c1

- logD [14]: 2.5
- IC50 [1]: 296 nM
Compound: O=S(=O)(Nc1ncns1)c1ccc(Oc2ccc(OC(F)(F)F)c(Cl)c2)cc1

- IC50 [19]: < 2000 nM
Compound: O=C1[C@@H](N2CC[C@H](c3cc(Cl)cc(Cl)c3)C2)CCN1c1ccc(S(=O)(=O)Nc2nccs2)cc1

- pKa [4]: 4.6
- logD [14]: 2
- IC50 [1]: > 3000 nM
Compound: O=C(NCc1ccc(OC(F)(F)F)c(Cl)c1)c1ccc(S(=O)(=O)Nc2cncnc2)c(F)c1

- IC50 [1]: 851 nM
Compound: O=S(=O)(Nc1nccs1)c1ccc(S(=O)(=O)N2CC[C@H](Oc3ccc(C(F)(F)F)cn3)C2)cc1F

- logD [14]: 2.6
- IC50 [1]: 197 nM
Compound: O=C(NCc1ccc(OC(F)(F)F)cc1)c1ccc(S(=O)(=O)Nc2nccs2)cc1
